The values that follow come from paper PMC7823583, “Discovery of Potent Dual EGFR/HER2 Inhibitors Based on Thiophene Scaffold Targeting H1299 Lung Cancer Cell Line” (Pharmaceuticals, 2020).

EGFR, sequence (P00533 25-1210): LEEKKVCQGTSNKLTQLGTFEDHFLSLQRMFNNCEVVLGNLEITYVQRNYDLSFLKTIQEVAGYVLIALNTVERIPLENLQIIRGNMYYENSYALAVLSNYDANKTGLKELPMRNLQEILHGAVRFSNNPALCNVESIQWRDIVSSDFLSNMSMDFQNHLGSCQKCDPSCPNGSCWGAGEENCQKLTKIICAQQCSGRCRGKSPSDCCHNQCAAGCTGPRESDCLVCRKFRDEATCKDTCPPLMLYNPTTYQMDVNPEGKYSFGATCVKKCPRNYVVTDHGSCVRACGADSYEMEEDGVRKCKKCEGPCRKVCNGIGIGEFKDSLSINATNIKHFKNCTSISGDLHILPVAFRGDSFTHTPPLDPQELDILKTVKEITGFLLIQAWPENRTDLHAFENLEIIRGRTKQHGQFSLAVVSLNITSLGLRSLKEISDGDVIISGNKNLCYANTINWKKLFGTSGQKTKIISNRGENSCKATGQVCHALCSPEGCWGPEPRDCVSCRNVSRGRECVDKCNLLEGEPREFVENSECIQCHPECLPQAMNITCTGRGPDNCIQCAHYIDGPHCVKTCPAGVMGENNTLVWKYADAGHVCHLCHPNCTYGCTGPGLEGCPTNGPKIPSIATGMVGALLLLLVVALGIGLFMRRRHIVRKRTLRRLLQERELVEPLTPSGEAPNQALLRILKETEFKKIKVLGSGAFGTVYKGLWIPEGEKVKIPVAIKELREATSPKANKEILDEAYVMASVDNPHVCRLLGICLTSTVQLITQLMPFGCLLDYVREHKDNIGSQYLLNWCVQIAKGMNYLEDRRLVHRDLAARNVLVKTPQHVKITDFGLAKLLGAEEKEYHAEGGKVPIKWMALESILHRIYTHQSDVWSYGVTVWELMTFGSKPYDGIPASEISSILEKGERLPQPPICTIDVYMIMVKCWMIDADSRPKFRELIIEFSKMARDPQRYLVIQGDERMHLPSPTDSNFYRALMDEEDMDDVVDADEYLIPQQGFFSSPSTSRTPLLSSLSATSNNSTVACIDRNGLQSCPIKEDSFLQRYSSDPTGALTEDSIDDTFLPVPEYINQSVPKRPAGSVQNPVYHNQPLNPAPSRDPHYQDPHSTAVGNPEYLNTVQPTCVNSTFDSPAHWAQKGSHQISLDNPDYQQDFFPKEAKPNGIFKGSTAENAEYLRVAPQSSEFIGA
HER2, sequence (P04626 23-1255): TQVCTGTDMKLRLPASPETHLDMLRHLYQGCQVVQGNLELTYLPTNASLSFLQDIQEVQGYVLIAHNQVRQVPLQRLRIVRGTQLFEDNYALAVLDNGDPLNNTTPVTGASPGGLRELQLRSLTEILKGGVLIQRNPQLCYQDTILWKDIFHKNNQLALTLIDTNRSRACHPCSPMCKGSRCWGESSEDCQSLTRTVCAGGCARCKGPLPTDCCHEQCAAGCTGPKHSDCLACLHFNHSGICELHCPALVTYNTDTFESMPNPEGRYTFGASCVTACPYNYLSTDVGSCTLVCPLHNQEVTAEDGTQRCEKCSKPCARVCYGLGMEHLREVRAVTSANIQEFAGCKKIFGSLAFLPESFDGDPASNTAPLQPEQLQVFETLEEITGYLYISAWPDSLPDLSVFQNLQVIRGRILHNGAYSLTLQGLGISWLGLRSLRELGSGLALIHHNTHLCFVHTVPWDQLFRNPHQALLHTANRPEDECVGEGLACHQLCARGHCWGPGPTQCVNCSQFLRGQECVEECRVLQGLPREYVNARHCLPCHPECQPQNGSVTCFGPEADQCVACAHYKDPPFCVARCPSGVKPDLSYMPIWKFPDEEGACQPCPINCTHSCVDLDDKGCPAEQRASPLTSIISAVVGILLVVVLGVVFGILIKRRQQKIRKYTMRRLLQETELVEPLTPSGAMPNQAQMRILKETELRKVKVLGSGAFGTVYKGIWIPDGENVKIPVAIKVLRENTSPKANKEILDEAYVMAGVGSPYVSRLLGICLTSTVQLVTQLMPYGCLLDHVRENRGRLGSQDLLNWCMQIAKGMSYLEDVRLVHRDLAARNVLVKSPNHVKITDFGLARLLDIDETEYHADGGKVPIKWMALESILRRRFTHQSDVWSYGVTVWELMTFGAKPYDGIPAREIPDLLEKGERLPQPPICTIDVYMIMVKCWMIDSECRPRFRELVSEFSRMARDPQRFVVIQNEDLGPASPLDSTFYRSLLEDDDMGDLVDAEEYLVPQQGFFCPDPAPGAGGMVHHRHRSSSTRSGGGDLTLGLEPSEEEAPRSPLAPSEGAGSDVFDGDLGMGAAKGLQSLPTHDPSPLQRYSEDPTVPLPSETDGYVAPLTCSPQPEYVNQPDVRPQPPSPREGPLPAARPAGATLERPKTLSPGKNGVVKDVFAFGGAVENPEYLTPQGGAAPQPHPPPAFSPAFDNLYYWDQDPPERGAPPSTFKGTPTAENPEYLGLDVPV

One test has as its target EGFR (Homo sapiens, UniProt P00533).
Test: not given
As to conditions: earlier study of the group; read-out: IC50 against EGFR; cited from earlier work.
By IC50 is commonly meant the concentration that gives 50% inhibition. `Oc1ccc(Nc2nnnc3sc4c(c23)CCC4)cc1` [Compound 8, reference compound]: the IC50 was about 38 nM.

For the molecule `Nc1cccc(Nc2nnnc3sc4c(c23)CCCC4)c1` [Compound 13b, 3-(5,6,7,8-Tetrahydro-7H-cyclohexa[4:5]thieno[2,3-d][1,2,3]triazin-4ylamino)benzene-1,3-diamine], the 50% inhibitory concentration (IC50) is about 0.33 nM.

Another test addresses HER2 (Homo sapiens, UniProt P04626). The test can be described thus: HER2 kinase inhibitory assay (Kinase-Glo Plus luminescence kinase assay). It counts as biochemical. As to conditions: read-out: IC50 against HER2. For orientation: Kinase-Glo measures the ATP left after a reaction by luminescence.
Consider `N#Cc1c(NC(=O)CNc2n[nH]c3ncccc23)sc2c1CCCC2` [Compound 21a, 2-(1H-Pyrazolo[3,4-b]pyridin-3-ylamino)-N-(3-cyano4,5,6,7-tetrahydrobenzo[b]thiophen-2-yl)acetamide], for which the IC50 turned out to be 0.14 nM.

A further test deals with NSCLC cell line H1299. The test can be described thus: In vitro cytotoxic activity against H1299, sulfo-rhodamine B (SRB) assay. As to conditions: Homo sapiens, NCI-H1299, 48 h, read-out: IC50 against H1299.
Description: The potential cytotoxic activity of the target compounds on H1299 lung cancer cell line was tested using sulfo-rhodamine B (SRB) assay according to Skehan method [20]. Single cells were plated in 96-multiwell plates for 24 h before treatment with the compounds. A single concentration of the tested compounds was added to the cell monolayer. Monolayer cell was incubated with the compounds for 48 h at 37 °C and in atmosphere of 5% CO2. After 48 h, cell was fixed, washed and stained with Sulforhodamine-B stain. Acetic acid was then used to wash excess stain and attached stain was recovered with Tris ethylenediaminetetraacetic acid (EDTA) buffer. Color intensity was measured in an enzyme-linked immunosorbent assay (ELISA).
Regarding `Nc1cccc(Nc2nnnc3sc4c(c23)CCC4)c1` [Compound 13a, 3-(5,6-dihydro-7H-cyclopenta[4:5]thieno[2,3-d][1,2,3]triazin-4-ylamino)benzene-1,3-diamine], the IC50 amounted to 28.8 nM.

For the molecule `Nc1cccc(Nc2nnnc3sc4c(c23)CCCC4)c1` [Compound 13b, 3-(5,6,7,8-Tetrahydro-7H-cyclohexa[4:5]thieno[2,3-d][1,2,3]triazin-4ylamino)benzene-1,3-diamine], the IC50 amounted to 25 nM.

`C(=Nc1cccc(Nc2nnnc3sc4c(c23)CCC4)c1)c1ccccc1` [Compound 14a, 3-(5,6-Dihydro-7H-cyclopenta[4:5]thieno[2,3-d][1,2,3]triazin-4-ylamino)-N-benzylidenebenzene-1,3-diamine]: the IC50 turned out to be 25.7 nM.

Take `Oc1ccccc1C=Nc1cccc(Nc2nnnc3sc4c(c23)CCC4)c1` [Compound 15a, 3-(5,6-Dihydro-7H-cyclopenta[4:5]thieno[2,3-d][1,2,3]triazin-4-ylamino)-N-(2-hydroxybenzylidene)benzene-1,3-diamine]: the IC50 was 32.8 nM.

On to `Oc1ccccc1C=Nc1cccc(Nc2nnnc3sc4c(c23)CCCC4)c1` [Compound 15b, 3-(5,6,7,8-Tetrahydro-7H-cyclohexa[4:5]thieno[2,3-d][1,2,3]triazin-4-ylamino)-N-(2-hydroxybenzylidene)benzene-1,3-diamine], for which the half-maximal inhibitory concentration (IC50) was found to be 34 nM.

For `O=[N+]([O-])c1cccc(C=Nc2cccc(Nc3nnnc4sc5c(c34)CCCC5)c2)c1` [Compound 17b, 3-(5,6,7,8-Tetrahydro-7H-cyclohexa[4:5]thieno[2,3-d][1,2,3]triazin-4-ylamino)-N-(3-nitrobenzylidene)benzene-1,3-diamine], the IC50 is 38.1 nM.

On to `N#Cc1c(NC(=O)CNc2n[nH]c3ncccc23)sc2c1CCCC2` [Compound 21a, 2-(1H-Pyrazolo[3,4-b]pyridin-3-ylamino)-N-(3-cyano4,5,6,7-tetrahydrobenzo[b]thiophen-2-yl)acetamide], for which the half-inhibitory concentration (IC50) came to 12.5 nM.

On to `Cc1cc(C)c2c(NCC(=O)Nc3sc4c(c3C#N)CCCC4)n[nH]c2n1` [Compound 21b, N-(3-Cyano-4,5,6,7-tetrahydrobenzo[b]thiophen-2-yl)-2-(4,6-dimethyl-1H-pyrazolo[3,4-b]pyridin-3-ylamino)acetamide], for which the IC50 was 13.7 nM.

For `N#Cc1c(NC(=O)CNc2onc3ncccc23)sc2c1CCCC2` [Compound 23, N-(3-Cyano-4,5,6,7-tetrahydrobenzo[b]thiophen-2-yl)-2-(isoxazolo[3,4-b]pyridin-3-ylamino)acetamide], the IC50 was determined as 18.4 nM.

With `N#Cc1c(NC(=O)CNN=Cc2cccc([N+](=O)[O-])c2)sc2c1CCCC2` [Compound 25a, N-(3-Cyano-4,5,6,7-tetrahydrobenzo[b]thiophen-2-yl)-2-(2-(3-nitrobenzylidene)hydrazinyl)acetamide], the IC50 was 18.5 nM.

For `COc1ccc(C=NNCC(=O)Nc2sc3c(c2C#N)CCCC3)cc1` [Compound 25b, N-(3-Cyano-4,5,6,7-tetrahydrobenzo[b]thiophen-2-yl)-2-(2-(4-methoxybenzylidene)hydrazinyl)acetamide], the 50% inhibitory concentration (IC50) is 18.5 nM.
